Read-outs that look alike come from different tables or passages of the source.
Key:
[1] = test system: 2A neural cells; assay: growth of neurites in 2A neural cells; type: cell-based; settings: FIG. 3D; for basal growth of neurites: substance alone
[2] = target: T1, CB1 receptor (Homo sapiens, UniProt P21554); type: biochemical; settings: for percentage of activity as compared to the control group: CB1
Text: (§1) Next the selectivity of hemopressin for CB1 receptors was examined using antibodies sensitive to the conformations of mu and delta opiod receptors, alpha-2A and beta-2 adrenergic receptors, as well as type 1 and 2 Angiotensin II receptors.

[3] = test system: diet induced obese rats; assay: insulin sensitivity in diet induced obese rats; type: in vivo, rat; settings: 50 micrograms/Kg and 1 mg/Kg hemopressin, FIG. 6
[4] = target: T1, CB1 receptor; type: biochemical
Procedure: A test was then designed, the results of which are illustrated in FIG. 2B, to determine if hemopressin could block the signaling of CB1 receptor. […] Finally, a test was designed to measure whether hemopressin is capable of blocking the increase of levels of phosphorylated ERK1 and ERK2.
Hemopressin was also determined to not only act as an antagonist but as an inverse agonist of CB1 receptors. This was further explored by studying the binding of GTPgammaS, adenylate cyclase activity and MAP kinase phopshorylation. […] This can clearly be seen in FIGS. 3A-C.

[5] = target: T1, CB1 receptor; assay: displacement of the ligand rimonabant from CB1 receptors; type: binding; settings: FIG. 2A
[6] = test system: male Wistar rats; assay: fat content and body weight in male Wistar rats on 63-day diet; type: in vivo, rat; settings: once a day for three days; for Body Weight (% of Control) / Periepididymal Adipose Tissue Weight / Retroperitoneal Adipose Tissue Weight / Visceral Adipose Tissue Weight: 63-day ad libitum diet
[7] = test system: rats; assay: standard swimming test for depression; type: in vivo, rat; settings: hemopressin 1 mg/Kg, FIG. 5
[8] = test system: rats and mice; settings: Dodd et al., cited from earlier work
[9] = test system: rats; assay: body weight and fat content after oral administration; type: in vivo, rat; settings: for Body Weight (% of Control) / Periepididymal Adipose Tissue Weight / Retroperitoneal Adipose Tissue Weight / Visceral Adipose Tissue Weight: rats
[10] = target: T1, CB1 receptor; settings: literature; cited from earlier work
[11] = target: T2, alpha-2A adrenergic receptor (Homo sapiens, UniProt P08913); assay: recognition by conformation-sensitive receptor antibody; type: biochemical
T2 sequence (P08913 1-465): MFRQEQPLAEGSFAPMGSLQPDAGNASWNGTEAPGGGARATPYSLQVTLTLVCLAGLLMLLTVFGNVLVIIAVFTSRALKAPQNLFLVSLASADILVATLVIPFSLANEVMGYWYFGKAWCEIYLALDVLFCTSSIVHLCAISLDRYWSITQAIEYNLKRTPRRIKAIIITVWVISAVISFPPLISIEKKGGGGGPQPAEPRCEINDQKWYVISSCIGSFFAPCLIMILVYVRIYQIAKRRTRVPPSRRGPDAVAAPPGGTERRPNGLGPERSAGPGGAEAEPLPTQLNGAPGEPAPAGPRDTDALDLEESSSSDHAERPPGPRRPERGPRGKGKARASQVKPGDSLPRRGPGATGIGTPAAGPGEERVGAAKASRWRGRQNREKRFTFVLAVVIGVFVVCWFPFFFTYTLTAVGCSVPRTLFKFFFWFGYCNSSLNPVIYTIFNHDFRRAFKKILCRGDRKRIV
Text: as §1, with “receptors. In the following table, it is possible to identify the specificity of the peptide hemopressin for the CB1 receptor. […] The following data presents the percentage of activity as compared to the control group: […]” for “receptors.”

[12] = target: T3, type 1 Angiotensin II receptor (AT1) (Homo sapiens, UniProt P30556); assay: as above; type: biochemical
T3 sequence (P30556 1-359): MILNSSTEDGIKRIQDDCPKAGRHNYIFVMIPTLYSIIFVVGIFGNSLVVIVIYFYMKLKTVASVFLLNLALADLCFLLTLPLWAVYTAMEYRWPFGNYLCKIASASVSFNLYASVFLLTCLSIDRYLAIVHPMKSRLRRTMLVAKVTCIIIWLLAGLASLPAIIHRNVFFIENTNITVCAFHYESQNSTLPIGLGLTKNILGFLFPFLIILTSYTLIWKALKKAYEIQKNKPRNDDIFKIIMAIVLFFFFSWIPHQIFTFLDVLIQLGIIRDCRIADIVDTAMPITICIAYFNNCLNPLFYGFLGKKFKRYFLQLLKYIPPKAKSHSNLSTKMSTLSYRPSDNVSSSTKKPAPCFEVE
Text: as §1, with “receptors. In the following table, it is possible to identify the specificity of the peptide hemopressin for the CB1 receptor. […] The following data presents the percentage of activity as compared to the control group: […]” for “receptors.”

[13] = target: beta-2 adrenergic receptor (Homo sapiens, UniProt P07550); assay: as above; type: biochemical
Text: as §1, with “receptors. In the following table, it is possible to identify the specificity of the peptide hemopressin for the CB1 receptor. […] The following data presents the percentage of activity as compared to the control group: […]” for “receptors.”

[14] = target: mu opioid receptor (Homo sapiens, UniProt P35372); assay: as above; type: biochemical
Text: as §1, with “receptors. In the following table, it is possible to identify the specificity of the peptide hemopressin for the CB1 receptor. […] The following data presents the percentage of activity as compared to the control group: […]” for “receptors.”

[15] = target: delta opioid receptor (Homo sapiens, UniProt P41143); assay: as above; type: biochemical
Text: as §1, with “receptors. In the following table, it is possible to identify the specificity of the peptide hemopressin for the CB1 receptor. […] The following data presents the percentage of activity as compared to the control group: […]” for “receptors.”

[16] = target: T4, type 2 Angiotensin II receptor (AT2) (Homo sapiens, UniProt P50052); assay: as above; type: biochemical
T4 sequence (P50052 1-363): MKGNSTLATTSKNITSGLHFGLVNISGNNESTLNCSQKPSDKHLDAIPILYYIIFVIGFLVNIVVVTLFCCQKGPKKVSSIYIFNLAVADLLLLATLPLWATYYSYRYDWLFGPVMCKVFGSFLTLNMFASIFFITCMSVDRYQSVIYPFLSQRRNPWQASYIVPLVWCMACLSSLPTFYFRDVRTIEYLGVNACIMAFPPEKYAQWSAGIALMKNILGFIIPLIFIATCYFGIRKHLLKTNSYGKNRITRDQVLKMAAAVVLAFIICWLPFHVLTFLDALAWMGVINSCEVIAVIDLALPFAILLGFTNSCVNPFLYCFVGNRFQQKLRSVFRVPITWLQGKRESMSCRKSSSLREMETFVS
Text: as §1, with “receptors. In the following table, it is possible to identify the specificity of the peptide hemopressin for the CB1 receptor. […] The following data presents the percentage of activity as compared to the control group: […]” for “receptors.”

[17] = cited from earlier work
[18] = target: T1, CB1 receptor; settings: in vitro, Dodd et al.; cited from earlier work
[19] = test system: rodents and humans; settings: literature; cited from earlier work
[20] = test system: male Zucker rats; assay: fat content in male Zucker rats after intraperitoneal administration; type: in vivo, rat; settings: intraperitoneal 50 micrograms/Kg once a day for three days
Procedure: Experiments were also conducted on genetically obese and diet-induced rats of another species. Male Zucker rats were maintained on a 12 hour light/dark cycle. The rats were divided into two groups that receive once a day for three days either intraperiotoneal administration of 50 micrograms/Kg body weight of HPW2 or saline.

T1 sequence (P21554 whole entry): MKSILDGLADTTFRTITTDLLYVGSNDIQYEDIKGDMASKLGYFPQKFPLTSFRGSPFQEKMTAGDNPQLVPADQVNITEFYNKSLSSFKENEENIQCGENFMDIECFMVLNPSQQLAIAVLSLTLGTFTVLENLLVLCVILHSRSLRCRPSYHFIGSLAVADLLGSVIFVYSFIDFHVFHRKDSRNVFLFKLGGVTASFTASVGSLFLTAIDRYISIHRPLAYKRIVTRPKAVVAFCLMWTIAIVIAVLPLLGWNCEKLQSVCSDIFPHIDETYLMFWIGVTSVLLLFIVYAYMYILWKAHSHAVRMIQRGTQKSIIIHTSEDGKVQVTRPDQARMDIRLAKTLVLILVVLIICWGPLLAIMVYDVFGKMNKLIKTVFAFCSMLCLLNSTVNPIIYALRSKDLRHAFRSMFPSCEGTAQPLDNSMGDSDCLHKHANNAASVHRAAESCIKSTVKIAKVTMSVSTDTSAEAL
Sequence of mu opioid receptor (P35372 whole entry): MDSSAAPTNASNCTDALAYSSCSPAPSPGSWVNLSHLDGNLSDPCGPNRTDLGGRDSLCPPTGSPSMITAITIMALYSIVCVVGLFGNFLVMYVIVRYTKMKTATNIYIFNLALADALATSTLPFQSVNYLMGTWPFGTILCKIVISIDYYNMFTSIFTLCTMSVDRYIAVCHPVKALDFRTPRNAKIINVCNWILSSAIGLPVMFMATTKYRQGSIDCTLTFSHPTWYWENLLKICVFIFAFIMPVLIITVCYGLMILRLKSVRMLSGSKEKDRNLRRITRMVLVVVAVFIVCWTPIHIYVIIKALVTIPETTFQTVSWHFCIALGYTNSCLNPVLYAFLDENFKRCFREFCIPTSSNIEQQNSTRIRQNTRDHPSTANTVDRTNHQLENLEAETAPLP
Sequence of delta opioid receptor (P41143 whole entry): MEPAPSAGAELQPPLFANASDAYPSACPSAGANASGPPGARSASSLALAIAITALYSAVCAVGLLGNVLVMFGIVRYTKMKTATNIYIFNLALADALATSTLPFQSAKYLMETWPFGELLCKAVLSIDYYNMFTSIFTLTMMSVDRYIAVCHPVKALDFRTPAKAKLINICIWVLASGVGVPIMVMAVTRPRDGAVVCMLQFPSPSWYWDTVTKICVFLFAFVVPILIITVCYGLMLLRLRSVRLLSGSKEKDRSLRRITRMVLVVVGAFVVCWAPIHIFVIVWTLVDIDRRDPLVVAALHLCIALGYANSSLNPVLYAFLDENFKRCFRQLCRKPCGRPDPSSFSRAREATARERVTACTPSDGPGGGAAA
Sequence of beta-2 adrenergic receptor (P07550 whole entry): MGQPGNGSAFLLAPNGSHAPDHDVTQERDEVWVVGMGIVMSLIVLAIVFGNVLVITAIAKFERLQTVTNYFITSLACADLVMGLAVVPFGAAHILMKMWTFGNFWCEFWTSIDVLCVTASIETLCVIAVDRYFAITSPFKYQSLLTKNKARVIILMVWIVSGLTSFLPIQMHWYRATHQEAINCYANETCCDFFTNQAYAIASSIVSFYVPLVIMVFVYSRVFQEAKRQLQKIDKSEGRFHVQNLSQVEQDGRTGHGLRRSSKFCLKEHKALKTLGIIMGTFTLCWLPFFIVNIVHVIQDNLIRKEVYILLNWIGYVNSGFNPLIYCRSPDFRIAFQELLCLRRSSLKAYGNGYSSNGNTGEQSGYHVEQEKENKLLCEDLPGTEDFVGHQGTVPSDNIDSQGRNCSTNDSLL

CCCCCCC(C)(C)c1cc(O)c2c(c1)OC(C)(C)[C@@H]1CC=C(CO)C[C@@H]21 [HU-210, reference compound]
basal growth of neurites [1]: induction of the growth of neurites
recognition of a CB1 specific antibody [2]: increase

CC(C)C[C@H](NC(=O)[C@H](Cc1ccccc1)NC(=O)[C@H](CCCCN)NC(=O)[C@H](Cc1ccccc1)NC(=O)[C@H](CC(N)=O)NC(=O)[C@@H](NC(=O)C1CCCN1)C(C)C)C(=O)N[C@@H](CO)C(=O)N[C@@H](Cc1cnc[nH]1)C(=O)O (stereo partly drawn) [hemopressin]
insulin sensitivity [3]: significantly improved insulin sensitivity
growth of neurites as measured against agonists [1]: efficiently blocks the growth of neurites
basal growth of neurites [1]: capable of decreasing the basal growth of neurites
block of the increase of GTPgammaS [4]: capable of blocking the increase of GTPgammaS
block of the increase of levels of phosphorylated ERK1 and ERK2 [4]: behave similarly to rimonabant
block of decreases in cAMP levels ([4]; against agonists, FIG. 2C): block decreases in cAMP levels with efficiency similar to that of rimonabant
basal signaling, binding of GTPgammaS ([4]; without agonist, FIG. 3A): causes decreases in signaling below the basal levels
basal signaling, adenylate cyclase activity ([4]; without agonist, FIG. 3B): causes decreases in signaling below the basal levels
basal signaling, MAP kinase phosphorylation ([4]; without agonist, FIG. 3C): causes decreases in signaling below the basal levels
block of the HU-210 induced increase in the recognition of the antibody [2]: significantly blocked
percentage of activity as compared to the control group ([2]; agonist and HP together): 102.06 ± 5.91%
percentage of activity as compared to the control group ([2]; hemopressin alone): 72.30 ± 3.32%
recognition of a CB1 specific antibody ([2]; substance alone, FIG. 1A/1B): decrease the recognition of a CB1 specific antibody
selectivity for CB1 receptors ([2]; versus mu and delta opioid, alpha-2A, beta-2, AT1, AT2 receptors): highly selective for CB1 receptors
displacement of rimonabant from CB1 receptors [5]: capable of displacing rimonabant from CB1 receptors
Body Weight (% of Control) [6]: 98.62 ± 13.33 % of Control
Periepididymal Adipose Tissue Weight [6]: 4.77 ± 1.06 g
Retroperitoneal Adipose Tissue Weight [6]: 6.12 ± 2.09 g
Visceral Adipose Tissue Weight [6]: 2.77 ± 0.58 g
periepididymal and visceral fat content compared to saline control [6]: significantly reduced periepididymal and visceral fat content
symptoms of depression in standard swimming test [7]: showed no such symptoms
food intake ([8]; administered centrally): induce hypophagia in vivo when administered centrally
food intake ([8]; administered systemically): induce hypophagia in vivo when administered systemically
retroperitoneal fat content [9]: significantly reduced by hemopressin only
total body weight and periepididymal fat content [9]: significantly reduce
Body Weight (% of Control) [9]: 96.89 ± 1.25 % of Control
Periepididymal Adipose Tissue Weight [9]: 7.16 ± 1.36 g
Retroperitoneal Adipose Tissue Weight [9]: 6.26 ± 1.62 g
Visceral Adipose Tissue Weight [9]: 4.31 ± 0.61 g
action at the CB1 receptor [10]: CB1 receptor inverse agonist
percentage of activity as compared to the control group ([11]; agonist and HP together): 130.05 ± 7.06%
percentage of activity as compared to the control group ([11]; hemopressin alone): 102.72 ± 2.00%
percentage of activity as compared to the control group ([12]; agonist and HP together): 140.01 ± 1.21%
percentage of activity as compared to the control group ([12]; hemopressin alone): 109.65 ± 1.31%
percentage of activity as compared to the control group ([13]; agonist and HP together): 157.40 ± 8.15%
percentage of activity as compared to the control group ([13]; hemopressin alone): 103.85 ± 9.29%
percentage of activity as compared to the control group ([14]; agonist and HP together): 141.09 ± 6.46%
percentage of activity as compared to the control group ([14]; hemopressin alone): 105.62 ± 1.09%
percentage of activity as compared to the control group ([15]; agonist and HP together): 131.08 ± 3.35%
percentage of activity as compared to the control group ([15]; hemopressin alone): 100.65 ± 4.29%
percentage of activity as compared to the control group ([16]; agonist and HP together): 137.10 ± 1.91%
percentage of activity as compared to the control group ([16]; hemopressin alone): 99.65 ± 4.71%
antinociceptive effects ([17]; Dale et al., literature): nonopioid antinociceptive effects
treatment of hyperalgesia ([17]; administered locally or systemically, Heimann et al.): effective in treating hyperalgesia
CB1 agonist-induced internalization of the CB1 receptor [18]: antagonize CB1 agonist-induced internalization of the CB1 receptor in vitro

Cc1c(C(=O)NN2CCCCC2)nn(-c2ccc(Cl)cc2Cl)c1-c1ccc(Cl)cc1 [rimonabant, reference compound]
insulin sensitivity [3]: did not produce similar results
growth of neurites as measured against agonists [1]: efficiently blocks the growth of neurites
symptoms of depression in standard swimming test [7]: caused the expected depression
Body Weight (% of Control) [9]: 98.92 ± 0.95 % of Control
Periepididymal Adipose Tissue Weight [9]: 5.57 ± 1.03 g
Retroperitoneal Adipose Tissue Weight [9]: 6.89 ± 1.31 g
Visceral Adipose Tissue Weight [9]: 3.91 ± 0.78 g
weight reduction [19]: weight-reducing effects over extended periods

PVNFKWLSH [HPW2]
insulin sensitivity [3]: significantly improved insulin sensitivity
Body Weight (% of Control) [6]: 95.47 ± 15.44 % of Control
Periepididymal Adipose Tissue Weight [6]: 4.01 ± 0.33 g
Retroperitoneal Adipose Tissue Weight [6]: 5.37 ± 1.11 g
Visceral Adipose Tissue Weight [6]: 2.63 ± 0.94 g
periepididymal and visceral fat content compared to saline control [6]: significantly reduced periepididymal and visceral fat content
total body weight and periepididymal fat content [9]: significantly reduce
Body Weight (% of Control) [9]: 96.71 ± 2.03 % of Control
Periepididymal Adipose Tissue Weight [9]: 7.32 ± 1.22 g
Retroperitoneal Adipose Tissue Weight [9]: 7.19 ± 1.50 g
Visceral Adipose Tissue Weight [9]: 4.28 ± 0.59 g
retroperitoneal fat content [20]: significant reduction in retroperitoneal fat content

VDPENFRLLGNM (listed as Rattus sp.) [non-cannabinoid peptide, reference compound]
fat content [9]: no effect
Body Weight (% of Control) [9]: 100.65 ± 8.07 % of Control
Periepididymal Adipose Tissue Weight [9]: 9.38 ± 0.95 g
Retroperitoneal Adipose Tissue Weight [9]: 8.80 ± 1.15 g
Visceral Adipose Tissue Weight [9]: 4.81 ± 1.25 g

Source: patent publication US9452196B2, “Pharmaceutical composition for treating medical conditions and a method for treating alimentary disorders and related diseases” (SOCIEDADE BENEFICENTE DE SENHORAS HOSPITAL SIRIO LIBANES, priority 2009, dated 2016)
